In ChEMBL document CHEMBL3045175, “Synthesis and Neuromuscular Blocking Activity of 16-Piperidino Epiandrosterone Derivatives” (Med Chem Res, 2005):
The source made the active and inactive calls. The rule behind the calls is not given here.

Assays:
Gallus gallus [1] = species on record: Gallus gallus; assay: Binding affinity to acetylcholine receptor in isolated Gallus gallus (chicken) biventar cervicis muscle assessed as reduction of twitch response to carbachol after washout
Gallus gallus [2] = species on record: Gallus gallus; assay: Binding affinity to acetylcholine receptor in isolated Gallus gallus (chicken) biventar cervicis muscle assessed as reduction of twitch response to carbachol
Gallus gallus [3] = species on record: Gallus gallus; assay: Binding affinity to acetylcholine receptor in isolated Gallus gallus (chicken) biventar cervicis muscle assessed as reduction of twitch response to carbachol at 1 uM up to 10 min
Electrophorus electricus = assay: (§1) Inhibition of Electrophorus electricus (electric eel) acetylcholinesterase
[4] = as §1
Gallus gallus [5] = species on record: Gallus gallus; assay: Binding affinity to acetylcholine receptor in isolated Gallus gallus (chicken) biventar cervicis muscle assessed as reduction of twitch response to carbachol in presence of neostigmine
Gallus gallus [6] = species on record: Gallus gallus; assay: Binding affinity to acetylcholine receptor in isolated Gallus gallus (chicken) biventar cervicis muscle assessed as reduction of twitch response to carbachol at 5 uM up to 10 min

| Compound | Activity (Gallus gallus [1]) | K (Gallus gallus [2]) [µM] | Activity (Gallus gallus [3]) | inhibition (Electrophorus electricus) | Ki [4] [nM] | Activity (Gallus gallus [5]) | Activity (Gallus gallus [6]) |
| --- | --- | --- | --- | --- | --- | --- | --- |
| CC(=O)O[C@H]1[C@@H](N2CCCCC2)C[C@H]2[C@@H]3CC[C@H]4C[C@@H](N5CCCC5)CC[C@]4(C)[C@H]3CC[C@@]21C | inactive | 0.2 | Active | Dose-dependent effect | 980 | inactive | – |
| C[C@]12CC[C@H](N3CCCC3)C[C@@H]1CC[C@@H]1[C@@H]2CC[C@]2(C)[C@@H](O)[C@@H](N3CCCCC3)C[C@@H]12 | inactive | 0.9 | – | Dose-dependent effect | 620 | inactive | Active |
